The values that follow come from patent publication US4977189A, “Substituted guanidinedicarbonyl derivatives” (American Cyanamid Company, priority 1988, dated 1990).

The structures appear in SMILES notation. “And” between values parts separate entries of the source, which are not always exact repeats. Identical values can stand only once.

Usually % Inhibition stands for the share of the control response that was lost under treatment. A high value points to a response far below the control.

Experiment [1] concerns Brain-Specific Receptors (3H-benzodiazepine binding). In words: Inhibition of the Binding of 3H-Benzodiazepine to Brain-Specific Receptors of Rats. Also on record: species or system rat (male albino, Wistar strain; whole cortex). To be noted: 3H-diazepam (1.5 nM) or 3H-flunitrazepam (1.0 nM); rat cortex P2-fraction; 30 minutes in ice; test concentration not given. The source says:
A test utilized for the determination of anxiolytic activity is the measurement of the ability of test compounds to inhibit the binding of tritiated benzodiazepines to brain-specific recptors of warm-blooded animals. A modification of the method described by R. F. Squires, et al., Nature, 266, No. 21, pg 732 (April, 1977) and H. Mohler, et al., Science, 198, pg 849 (1977) was employed.
Male albino rats (Wistar strain, weighing 150-200 g each) were used. The test compounds were solubilized in either dimethylformamide, acetic acid, ethanol or hydrochloric acid.
Whole cortex of rats was homogenized gently in 20 volumes of ice-cold 0.32M sucrose, centrifuged twice at 1000 g for 10 minutes and then recentrifuged at 30,000 g for 20 minutes to produce a crude P2 -synaptosomal fraction. The P2 -fraction was either: (1) resuspended in twice the original volume in hypotonic 50 mM Tris.HCl (pH 7.4), or (2) resuspended in one-half the original volume in hypotonic 10 mM Tris.HCl (pH 7.4) and frozen (-20° C.) until time of use. Frozen P2 preparations were thawed and resuspended in four times the original homogenizing volume at time of assay.
The binding assay consisted of 300 μl of the P2 -fraction suspension (0.2-0.4 mg protein), 100 μl of test drug and 100 μl of ^3 H-diazepam (1.5 nM, final concentration) or ^3 H-flunitrazepam (1.0 nM, final concentration) which was added to 1.5 ml of 50 mM Tris.HCl (pH 7.4). Non-specific binding controls and total binding controls d 100 μl of diazepam (3 μM final concentration) and 100 μl of deionized water, respectively, in place of the test compound. Incubation for 30 minutes proceeded in ice and was terminated by filtration, under vacuum, through glass fiber filters. The filters were washed twice with 5 ml of ice-cold 50 mM Tris.HCl (pH 7.4) and placed in scintillation vials. After drying at 50°-60° C. for 30 minutes, 10 ml of diluent was added and the radioactivity determined in a scintillation counter.
Inhibition of binding was calculated by the difference between total binding and binding in the presence of test compound, divided by the total binding, X 100.

The subject of another experiment is Royal Hart mice. As to the kind of experiment: Hypoxic Survival Test. The experiment is classed as in vivo, mouse (Royal Hart). The settings on record: Mus musculus, ip, 5 min, 30 minutes prior, 10% oxygen, survival after 5 minutes, read-out: % Survivors; for responders at 50 mg/kg: 50 mg/kg intraperitoneally; for responders at 100 mg/kg: 100 mg/kg intraperitoneally. The procedure: A useful in vivo test that measures how effectively central nervous system-acting drugs enhance survival in a hypoxic environment, presumably by improving the ratio of energy supply to demand is known as the Hypoxic Survival Test. […] Drugs are tested by intraperitoneally injecting groups of mice 30 minutes prior to placing them in a hypoxic mixture and measuring survival. The rationale of this test is that drugs which enhance survival under hypoxic conditions without concomitant, depression or sedative side effects, may do so by enhancing energy metabolism, or by preserving normal brain function under conditions of reduced energy metabolism. Given the dependence of the brain on a constant supply of energy, drugs which have this property may have many far-reaching therapeutic indications, including recovery from stroke and closed head injury, as well as reducing the deleterious effects of the aging central nervous system.
Groups of 20 Royal Hart mice (6 weeks of age) are injected intraperitoneally with test compound (1-200 mg/kg) 30 minutes prior to placing them in a hypoxic mixture (10% oxygen in 90% […]) and measuring survival after 5 minutes.
A separate group of 20 mice is injected intraperitoneally with saline solution (0.01 cc/g of body weight) and processed as described above.
Still another group of 20 mice is injected intraperitoneally with 0.125 mg/kg of physostigmine and processed as described above.

The next experiment concerns Swiss-Webster mice. As to the kind of experiment: Passive Avoidance Anoxic Induced Amnesia Test. The experiment is classed as in vivo, mouse (Swiss-Webster, middle-aged). The settings on record: 50 mg/kg intraperitoneally, 30 minutes prior to training and testing; latency vs saline control; 30% considered active. The text has this: Another in vivo test associated with decreased neural function in mammals is the Passive-Avoidance Anoxic-Induced-Amnesia Test. This test is used to determine the attenuation of anoxic induced amnesia in mice treated with drug, as compared to saline treated control animals with no drug.
A shock-motivated, single trial, step-through passive avoidance procedure is used. Groups of 25 Swiss-Webster, middle-aged mice (9 months of age) are placed singly in the front chamber of a 2-chamber box and are allowed to voluntarily cross into the rear chamber. As soon as the mouse enters the rear chamber, a door automatically traps the animal and a mild electric shock (0.4 mA for 4 seconds) is delivered to its feet. Following the foot shock, the mice are initially placed in an anoxic environment (0% oxygen) for 12 seconds, which quickly induces unconsciousness. They are then placed in a hypoxic environment (15% oxygen) for four minutes which prolongs the oxygen deprived state, maintaining unconsciousness. All testing is performed 24 hours later, and in all cases the mice appear fully recovered from the previous anoxic/hypoxic treatment. All test compounds are administered intraperitoneally at a dose of 10-200 mg/kg, 30 minutes prior to training and testing. […]
The latency to enter the rear chamber is recorded for both training and testing. […]

For the compound `Cc1cccc(C(=O)N=C(NC(=O)c2cccc(C)c2)Nc2ccc(C(N)=O)cc2)c1` [N,N'-[[4-(Aminocarbonyl)phenyl]carbonimidoyl]bis[3-methylbenzamide]], the “% Inhibition” value in experiment [1] is on record as 25%. In the experiment with Royal Hart mice, the responders at 50 mg/kg was determined as 40% and the responders at 100 mg/kg came to 43%.
With `COc1ccc(C(=O)NC(=NC(=O)c2cccs2)Nc2cccc(C(N)=O)c2)cc1` [N-[[[3-(Aminocarbonyl)phenyl]amino][(4-methoxybenzoyl)amino]methylene]-2-thiophenecarboxamide], the “% Inhibition” value in experiment [1] was found to be 19%. For the same compound, in the experiment on Royal Hart mice, the responders at 50 mg/kg was found to be 45% and the responders at 100 mg/kg was 45%.
For `CCCCCCCCNC(=O)c1ccc(NC(=NC(=O)c2cccc(C)c2)NC(=O)c2cccc(C)c2)cc1` [N,N'-[[4-(Octylamino)carbonyl]phenyl]carbonimidoyl]bis[3-methylbenzamide]], in experiment [1], the “% Inhibition” value came to 16%.
The same measure, in the same setting: the value for `Cc1ccc(C(=O)N=C(NC(=O)c2ccc(Br)cc2)Nc2ccc(C(N)=O)cc2)cc1` [N-[[[4-(Aminocarbonyl)phenyl]amino][(4-bromobenzoyl)amino]methylene]-4-methylbenzamide] was 57%.
Still for that read-out and setting: the same measure for `Cc1cccc(C(=O)N=C(NC(=O)c2ccccc2)Nc2cccc(C(N)=O)c2)c1` [N-[[[3-(Aminocarbonyl)phenyl]amino](benzoylamino)methylene]-3-methylbenzamide]: 15%.
In the case of `NC(=O)c1ccc(N=C(NC(=O)c2ccccc2)NC(=O)c2ccccc2)cc1` [N,N'-[[[4-(Aminocarbonyl)phenyl]imino]methylene]bis[benzamide]], the “% Improvement” value in the experiment on Swiss-Webster mice was 50% and 54%. Moreover, in the experiment on Royal Hart mice, the responders at 50 mg/kg stood at 40% and the responders at 100 mg/kg was determined as 62%. Further, the responders at 200 mg/kg in the experiment on Royal Hart mice (200 mg/kg intraperitoneally) worked out at 47%.
In the case of `COc1ccc(C(=O)NC(=NC(=O)c2ccc(C)cc2)Nc2cccc(C(N)=O)c2)cc1` [N-[[[3-(Aminocarbonyl)phenyl]amino][(4-methoxybenzoyl)amino]methylene]-4-methylbenzamide], in experiment [1], the “% Inhibition” value was determined as 12%.
